According to publication PMC7025647, “Identifying the Naphthalene-Based Compound 3,5-Dihydroxy 2-Napthoic Acid as a Novel Lead Compound for Designing Lactate Dehydrogenase-Specific Antibabesial Drug” (Frontiers in Pharmacology, 2020):
“And” between values parts separate entries of the source, which are not always exact repeats. Identical values can stand only once. Like-named read-outs stand apart in the source and are kept apart here.

Key:
[1] = system: B. microti ATCC PRA-99 strain; test: Growth inhibition of B. microti in vitro; assay type: cell-based, Babesia microti; conditions: for IC50: Babesia microti
Protocol: (§1) Three BALB/c mice were intraperitoneally injected with 1 x 10^7 parasites (100 μl fresh blood), and their blood was collected from the tail when parasitemia reached ~60% at day 7 post-infection. The growth inhibition assay of B. microti in vitro was performed by incubating freshly isolated infected mouse red blood cells (RBCs) with varying concentrations of the drugs. Briefly, […] infected mouse RBCs was diluted with 5 μl non-infected mouse RBCs and 10 μl non-infected human RBCs to achieve ~3% parasitemia in a total of 40 μl and suspended in 110 μl of a growth medium (20% bovine serum and 80% medium HL20) containing the indicated concentrations of drugs (50, 100, and 250 μM). The cultures were maintained at 37°C for 72 h in a gas mixture of 2% O2, 5% CO2, and 93% N2. Two naphthalene-based compounds DBHCA and DHNA were prepared as 100 mM stock solutions in DMSO and further diluted with growth medium. Each concentration of the compounds was tested in triplicate, while three wells received a drug-free culture medium as a control. 10 μM diminazene aceturate (DA) was selected as a positive control. Parasitemia was determined at 72 h post-treatment by enumerating a total of at least 1,000 RBCs in a Giemsa-stained thin smear. Differences in the percent parasitemia were statistically analyzed using one-way ANOVA analysis, and the IC50 values were calculated manually for obtaining more reliable data (Käber method). The hemolysis of DBHCA and DHNA against B. microti-free erythrocytes was monitored by cell counting chamber at 72 h post-treatment. All the experiments were separately repeated three times.

[2] = system: Plasmodium falciparum lactate dehydrogenase (PfLDH); conditions: 2005, cited from earlier work; for IC50: ref Conners et al.
[3] = system: B. microti-free erythrocytes; test: Hemolysis of B. microti-free erythrocytes; assay type: cell-based; conditions: drug levels up to 250 µM, 72 h post-treatment
Protocol: as §1, with “Each concentration of the compounds was tested in triplicate, while three wells received a drug-free culture medium as a control. 10 μM diminazene aceturate (DA) was selected as a positive control.” left out, “All the experiments were separately repeated three times.” left out

rBmLDH = rBmLDH (Babesia microti, UniProt I7J7V6); test: Surface plasmon resonance binding kinetics (Biacore T200); conditions: for koff: read-out: k d
Protocol: The binding properties of the rBmLDH against DBHCA and DHNA were measured separately by SPR experiment with a Biacore T200 system (GE Healthcare, Uppsala, Sweden). Briefly, a sensor chip CM5 was put into a Biacore T200 system and washed with the running buffer (PBST+0.5% DMSO, pH7.5). The CM5 chip was activated by injecting the mixture of 0.1 M N-hydroxysuccinimide (NHS) and 0.4 M 1-ethyl-3-(3-dimethylaminopropyl) carbodiimide hydrochloride (EDC) (1:1, v/v) at a flow rate of 10 μl·min^−1 for 20 min. Then, the rBmLDH diluted to 10 μg·ml^−1 with 10 mM sodium acetate buffer (pH 4.0, 4.5, 5.0, and 5.5) was covalently immobilized on the CM5 chip at a flow rate of 10 μl·min^−1 until the immobilization level of BmLDH reached 2,100 resonance units (RU). Ethanolamine solution was injected to block the remaining unreacted esters. Flow cell 1 was activated and blocked as the reference surface, while flow cell 2 served as the experimental surface. The 100 mM stocks of the two small molecule compounds were further diluted with PBST into 500, 250, 125, 62.5, 31.25, and 15.625 μM. The surface of CM5 sensor chip was fully regenerated using 10 mM glycine pH2.5 at a flow rate of 30 μl min^−1 for 30 s. The SPR kinetic experiments were performed three times and the values were presented as the mean ± SD of three independent experiments.
For binding kinetic assays, standard solutions of two naphthalene-based compounds (DBHCA and DHNA) at different concentrations were tested and the data were fitted with a 1:1 binding kinetic model.

[4] = biological target: human lactate dehydrogenase (HmLDH); design: method as in Conners et al., 2005; conditions: ref Conners et al., 2005; cited from earlier work
[5] = biological target: recombinant BmLDH (rBmLDH) (Babesia microti, UniProt I7J7V6); test: biochemical; assay type: biochemical; conditions: for selectivity over human LDH: rBmLDH vs human LDH
Protocol: The enzyme activity of rBmLDH was analyzed using Lactate Dehydrogenase Activity Assay Kit (Sigma-Aldrich, Shanghai, China) according to the manufacturer’s instruction. Briefly, the enzymatic activity of BmLDH was detected by catalyzing the conversion of lactate to pyruvate, with concomitant reduction of NAD^+ to NADH. The coupled reaction was followed by measuring absorbance at 450 nm and at 37°C. Three naphthalene-based compounds [2,6-naphthalenedicarboxylic acid (NDCA), 1,6-dibromo-2-hydroxynapthalene 3-carboxylic acid (DBHCA), and 3,5-dihydroxy 2-napthoic acid (DHNA)] were purchased from Sigma-Aldrich (Shanghai, China) with 99% purity for NDCA and 97% purity for DBHCA and DHNA. In the inhibitory analysis, three naphthalene-based compounds were prepared as 100 mM stock solution in 100% dimethylsulfoxide (DMSO) ( Table 2 ).
The half-maximal inhibitory concentration (IC50) values were determined in the presence of various concentrations of the three naphthalene-based compounds. […] The absorbance Tinitia and Tfinal (5 min) was measured at 450 nm. XY graphs were drawn by linear regression and error bars represent means ± SD of three independent experiments.

[6] = Cytotoxicity test by MTT method; assay type: cell-based, African green monkey; conditions: African green monkey, Vero cells (ATCC-CCL-81), MTT, 72 h
Protocol: (§2) Mycoplasma-free Vero cell line (ATCC-CCL-81, immortalized cells) was preserved in liquid nitrogen with the additive of DMSO in the State Key Laboratory of Agricultural Microbiology, Huazhong Agricultural University, China. […] After adding 10 µl MTT (5 mg/ml in medium) into each test well, the plate was further incubated for another 2 h, followed by removing the culture from the incubator and discarding the medium. […] The plate was gently mixed on a gyratory shaker for 10 min and the absorbances were measured at a wavelength of 570 nm using a microplate reader (BioTek, Vermont, USA). The background absorbances of the multi-well plate at 690 nm were subtracted from the 570 nm measurement. […] The CC50 values were calculated using GraphPad Prism 5 (San Diego, CA, USA), and all the cytotoxicity tests were performed three times.

Vero cells = test: Cytotoxicity test by MTT method; assay type: cell-based, African green monkey; conditions: for SI (selectivity index): between B. microti and Vero cells
Protocol: as §2

human LDH-B = system: human LDH-B; design: method as in Deck et al., 1998; Rellinger et al., 2017; conditions: even at high concentrations; ref Deck et al., 1998; Rellinger et al., 2017; cited from earlier work
[7] = system: glyceraldehyde-3-phosphate dehydrogenase; design: method as in Deck et al., 1998; Rellinger et al., 2017; conditions: even at high concentrations; ref Deck et al., 1998; Rellinger et al., 2017; cited from earlier work
Plasmodium falciparum = system: Plasmodium falciparum; design: method as in Vivas et al., 2005; conditions: ref Vivas et al., 2005; read-out: IC50 against growth of P. falciparum in vitro; cited from earlier work
BmLDH = biological target: BmLDH; design: method as in Yu et al., 2019; conditions: ref Yu et al., 2019; read-out: K i against BmLDH; cited from earlier work
LDH-B4 = conditions: mammalian LDHs, competitive with NADH binding; read-out: K i for LDH-B4; cited from earlier work
Babesia bovis = system: Babesia bovis; design: method as in Bork et al., 2004; conditions: ref Bork et al., 2004; read-out: IC50 in vitro against B. bovis; cited from earlier work
LDH-A4 = conditions: mammalian LDHs, competitive with NADH binding; read-out: K i for LDH-A4; cited from earlier work
LDH-C4 = conditions: mammalian LDHs, competitive with NADH binding; read-out: K i for LDH-C4; cited from earlier work
BbLDH = conditions: read-out: K i against BbLDH; ref Bork et al., 2004; cited from earlier work
B. microti = system: B. microti; design: method as in Yu et al., 2019; conditions: ref Yu et al., 2019; read-out: IC50 against B. microti in vitro; cited from earlier work
[8] = SPR, 1:1 binding model, rBmLDH immobilized on CM5
[9] = 72 h post-treatment, Giemsa smear parasitemia, read-out: IC50 against growth of B. microti in vitro
[10] = asexual blood stage, 72 h, read-out: PRA-99 IC50
[11] = rBmLDH 100 ng, lactate to pyruvate, absorbance 450 nm, 37°C, read-out: BmLDH IC50

recombinant BmLDH (rBmLDH), sequence (I7J7V6 entry or part of it): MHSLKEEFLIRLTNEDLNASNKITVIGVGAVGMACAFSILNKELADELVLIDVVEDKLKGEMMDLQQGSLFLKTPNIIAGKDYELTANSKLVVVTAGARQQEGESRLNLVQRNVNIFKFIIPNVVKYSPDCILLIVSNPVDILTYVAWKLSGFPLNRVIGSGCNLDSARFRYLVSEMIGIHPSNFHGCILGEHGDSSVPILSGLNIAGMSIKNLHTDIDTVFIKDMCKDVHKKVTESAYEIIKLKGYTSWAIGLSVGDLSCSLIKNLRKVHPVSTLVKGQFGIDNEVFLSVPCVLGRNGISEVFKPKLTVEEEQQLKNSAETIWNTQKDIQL
rBmLDH, sequence (I7J7V6 entry or part of it): as above

CC(=O)NCC(=O)O.CC(=O)NCC(=O)O.N=C(N)c1ccc(N=NNc2ccc(C(=N)N)cc2)cc1 [DA, diminazene aceturate, reference compound]
inhibition of growth of the parasite ([1]; positive control at 10 μM, 72 h): ~ 75.54%

O=C(O)c1cc2cc(Br)ccc2c(Br)c1O [DBHCA, 1,6-Dibromo-2-hydroxynapthalene 3-carboxylic acid]
IC50 [2]: 310 µM
cellular hemolysis [3]: no cellular hemolysis
Kd (rBmLDH): 0.0399 µM
kon (rBmLDH; SPR, 1:1 binding model, rBmLDH immobilized on CM5, read-out: k a): 37700 M⁻¹ s⁻¹
koff (rBmLDH; [8]): 0.0015 s⁻¹
IC50 [4]: 5900 µM
IC50 [1, 9]: 84.8 µM
IC50 [1, 10]: 85 µM
IC50 ([5]; BmLDH IC50, rBmLDH 100 ng, lactate to pyruvate, absorbance 450 nm, 37°C): 54 µM
IC50 ([5]; IC50 against BmLDH activity, rBmLDH, mean ± SD of three experiments): 53.9 ± 13.3 µM
selectivity over human LDH [5]: ~ 109 fold
CC50 at 72 h ([6]; read-out: CC50 Vero): 217 µM
CC50 at 72 h ([6]; read-out: CC50 in Vero cells): 216 ± 18 µM
SI (selectivity index) (Vero cells): 2.6

O=C(O)c1cc2cccc(O)c2cc1O [DHNA, 3,5-Dihydroxy 2-napthoic acid]
IC50 [2]: 1700 µM
cellular hemolysis [3]: no cellular hemolysis
k a (rBmLDH; [8]): 20.49 1/Ms and 20.49 ± 4.18 × 10^−1 1/Ms
Kd (rBmLDH; SPR, 1:1 binding model, rBmLDH immobilized on CM5, read-out: K D): 37.7 µM
koff (rBmLDH; [8]): 0.000772 s⁻¹
IC50 [1, 9]: 85.7 µM
IC50 [1, 10]: 86 µM
inhibition at 60 µM ([5]; at ~60 μM, read-out: rBmLDH activity inhibited): 100%
IC50 [5, 11]: 30 µM
selectivity over PfLDH ([5]; rBmLDH vs PfLDH): ~ 57 fold
selectivity over human LDH [5]: ~ 5,000 fold
IC50 ([5]; rBmLDH, mean ± SD of three experiments, read-out: IC50 against BmLDH activity): 30.2 ± 8.49 µM
CC50 at 72 h ([6]; read-out: CC50 Vero): 1900 µM
SI (selectivity index) (Vero cells): 22.1

CCCc1c(O)c(O)c(C(=O)O)c2cc(Cc3ccccc3)c(C)cc12 [FX11]
inhibition of human LDH-B (human LDH-B): not
inhibition of glyceraldehyde-3-phosphate dehydrogenase [7]: not

O=C(O)c1ccc2cc(C(=O)O)ccc2c1 [NDCA, 2,6-Naphthalenedicarboxylic acid]
IC50 [2]: 5100 µM
IC50 [4]: 1400 µM
inhibitory effect on the BmLDH activity ([5]; even at the high concentration of 500 μM): no inhibitory effect
IC50 [5, 11]: > 500 µM

COc1cccc2c1C(=O)c1c(O)c3c(c(O)c1C2=O)C[C@@](O)(C(=O)CO)C[C@@H]3O[C@H]1C[C@H](N)[C@H](O)[C@H](C)O1 [doxorubicin, reference compound]
inhibition at 3 µM (Vero cells; Chlorocebus sabaeus, Vero, positive control at 3 µM, read-out: inhibition of growth of Vero cells): ~95%

Cc1cc2c(C(C)C)c(O)c(O)c(C=O)c2c(O)c1-c1c(C)cc2c(C(C)C)c(O)c(O)c(C=O)c2c1O [gossypol]
Ki ([2]; competitive, ref Vivas et al., read-out: K i against PfLDH): 0.7 µM
IC50 (Plasmodium falciparum): 15.3 µM
Ki (BmLDH): 0.67 µM
Ki (LDH-B4): 1.4 µM
IC50 (Babesia bovis): 50 µM
Ki (LDH-A4): 1.9 µM
inhibition at 0.7 µM ([5]; read-out: inhibition of the catalytic activity of BmLDH): ~100%
Ki (LDH-C4): 4.2 µM
Ki (BbLDH): 0.085 µM
IC50 (B. microti): 7.07 µM
